Where a name gives a salt, the structure may show the parent alone.

The text below walks through data of patent US4206156A, “Hydroxyaminohydrocarbonphosphonic acids” (Fujisawa Pharmaceutical Company, Limited, priority 1976, dated 1980).

In data set [1] the test system is pathogenic microorganisms. The conditions noted are these: in words; from work filed as U.S. application Ser. No. 819,551; cited from earlier work.
The subject of data set [2] is Bacillus substilis ATCC6633. As to the kind of experiment: M.I.C., serial agar dilution, nutrient agar (inoculum 10^6 cells/ml). In kind it is cell-based. The conditions noted are these: ATCC6633, 20 h. On the procedure:
(§1) M.I.C. test was conducted by the usual serial agar dilution method, (inoculum:10^6 cells/ml.), using a nutrient agar which was incubated at 37° C. for 20 hours. M.I.C. value is expressed as the minimum concentration of the monoammonium salt of 3-(N-formyl-N-hydroxyamino)-propylphosphonic acid (mcg/ml.) which inhibits growth of microorganisms.

Data set [3] has as its system Staphylococcus aureus FDA209P JC-1. The data set is described as above. In kind it is cell-based. To be noted: 37° C., 20 hours. How it is done: as §1
The test system of data set [4] is Salmonella paratyphi A-1015. The description is as above. In kind it is cell-based. The conditions noted are these: Salmonella enterica, 20 h. On the procedure:
as §1

Data set [5] concerns Proteus mirabilis 1432-75. The description is as above. In kind it is cell-based. To be noted: 143275, 37° C., 20 hours. On the procedure:
as §1

The subject of data set [6] is Shigella sonnei I EW33. Described as above. In kind it is cell-based. The conditions noted are these: IEW33, 37° C., 20 hours. On the procedure:
as §1

Data set [7] has as its system Escherichia coli NIHJ JC-2. The data set is described as above. The conditions noted are these: NIHJJC2, 37° C., 20 hours. In kind it is cell-based. How it is done: as §1
For data set [8], the system named is Serratia marcescens 1421-4. Described as above. In kind it is cell-based. To be noted: 14214, 37° C., 20 hours. On the procedure: as §1
Data set [9] deals with Salmonella enteritidis 1891. The data set is described as above. In kind it is cell-based. To be noted: Salmonella enterica, 37° C., 20 hours. How it is done:
as §1

Data set [10] has as its system Escherichia coli 1341-18(R). Described as above. In kind it is cell-based. The conditions noted are these: 20 h. On the procedure: as §1
The subject of data set [11] is Salmonella typhi 0-901. Described as above. In kind it is cell-based. The conditions noted are these: Salmonella enterica, 20 h. On the procedure: as §1
The test system of data set [12] is Pseudomonas aeruginosa IAM 1095. Described as above. To be noted: IAM1095, 37° C., 20 hours. In kind it is cell-based. How it is done: as §1
The subject of data set [13] is Sarcina lutea PCI 1001. The data set is described as above. In kind it is cell-based. The conditions noted are these: Micrococcus luteus, PCI1001, 37° C., 20 hours. On the procedure: as §1
Data set [14] has as its system Klebsiella pneumoniae NCTC 418. The data set is described as above. In kind it is cell-based. To be noted: NCTC418, 37° C., 20 hours. On the procedure:
as §1

Data set [15] deals with Proteus inconstans 1436-21. Described as above. In kind it is cell-based. To be noted: Providencia alcalifaciens, 143621, 37° C., 20 hours. On the procedure:
as §1

Data set [16] deals with Proteus rettgeri 1434-3. The data set is described as above. In kind it is cell-based. To be noted: Providencia rettgeri, 14343, 37° C., 20 hours. How it is done:
as §1

The subject of data set [17] is Enterobacter aerogenes 1402-10. The data set is described as above. In kind it is cell-based. To be noted: Klebsiella aerogenes, 140210, 37° C., 20 hours. On the procedure: as §1
Data set [18] has as its system Salmonella typhimurium 1406. The description is as above. In kind it is cell-based. The conditions noted are these: Salmonella enterica, 37° C., 20 hours. On the procedure: as §1
The test system of data set [19] is Citrobacter freundii 1381-3. Described as above. In kind it is cell-based. To be noted: 13813, 37° C., 20 hours. On the procedure:
as §1

In data set [20] the test system is Shigella flexneri IaEW8. The data set is described as above. In kind it is cell-based. The conditions noted are these: 37° C., 20 hours. On the procedure: as §1
For data set [21], the system named is Proteus morganii 1433-2. The description is as above. In kind it is cell-based. The conditions noted are these: Morganella morganii, 14332, 37° C., 20 hours. On the procedure:
as §1

The subject of data set [22] is Proteus vulgaris IAM 1025. Described as above. In kind it is cell-based. The conditions noted are these: IAM1025, 37° C., 20 hours. How it is done: as §1
The subject of data set [23] is Enterobacter cloacae 1401-4. Described as above. In kind it is cell-based. The conditions noted are these: 14014, 37° C., 20 hours. On the procedure: as §1
For data set [24], the system named is Pseudomonas aeruginosa 1101-76. As to the kind of experiment: Protecting effect in experimental mice infections. In kind it is in vivo, mice (ICR-strain). To be noted: Pseudomonas aeruginosa 1101-76, 1.2 × 10^6 viable cells per mouse, survival 1 week. On the procedure: Male mice of ICR-strain, aged 4 weeks and weighing 24±1 g., were used. Each experimental group consists of 8 animals.
A prescribed amount of pathogenic bacteria, suspended in 5% aqueous Mucin solution (0.5 ml.), was intraperitoneally injected into the test animals.
Subsequently, the above test compound in water (0.25 ml.) was administered to each of the test animals, subcutaneously three times at 0, 1, 3 hours or orally once at 1 hour after the infection of pathogenic bacteria, respectively.

Data set [25] has as its system Staphylococcus aureus FDA209PJC-1. Put plainly: M.I.C., serial agar dilution, nutrient agar (inoculum 10^5 cells/ml). In kind it is cell-based. To be noted: FDA209PJC1, 37° C., 18 hours. How it is done: (§2) M.I.C. test was conducted by an usual serial agar dilution method, (inoculum: 10^5 cells/ml.), using a nutrient agar which was incubated at 37° C. for 18 hours. M.I.C. value is expressed as the minimum concentration of the monopotassium salt of 3-(N-formyl-N-hydroxyamino)-trans-1-propenylphosphonic acid (mcg/ml.) which inhibits growth of microorganisms.

Data set [26] has as its system Bacillus subtilis ATCC6633. Described as above. The conditions noted are these: 37° C., 18 hours. In kind it is cell-based. How it is done:
as §2

For data set [27], the system named is Salmonella paratyphi A-1015. Described as above. In kind it is cell-based. To be noted: Salmonella enterica, 37° C., 18 hours. How it is done:
as §2

For data set [28], the system named is Proteus mirabilis 1432-75. The description is as above. In kind it is cell-based. To be noted: 143275, 37° C., 18 hours. On the procedure:
as §2

In data set [29] the test system is Shigella sonnei I EW33. The data set is described as above. In kind it is cell-based. The conditions noted are these: IEW33, 37° C., 18 hours. On the procedure:
as §2

Data set [30] concerns Serratia marcescens 1421-4. The data set is described as above. In kind it is cell-based. The conditions noted are these: 14214, 37° C., 18 hours. How it is done: as §2
Data set [31] concerns Salmonella enteritidis 1891. Described as above. To be noted: Salmonella enterica, 37° C., 18 hours. In kind it is cell-based. On the procedure: as §2
Data set [32] relates to Salmonella typhi 0-901. The description is as above. In kind it is cell-based. To be noted: Salmonella enterica, 37° C., 18 hours. On the procedure:
as §2

Data set [33] has as its system Pseudomonas aeruginosa IAM 1095. The description is as above. In kind it is cell-based. The conditions noted are these: IAM1095, 37° C., 18 hours. On the procedure: as §2
Data set [34] relates to Sarcina lutea PCI 1001. The description is as above. In kind it is cell-based. The conditions noted are these: Micrococcus luteus, PCI1001, 37° C., 18 hours. On the procedure:
as §2

Data set [35] relates to Klebsiella pneumoniae NCTC 418. The data set is described as above. In kind it is cell-based. To be noted: NCTC418, 37° C., 18 hours. On the procedure: as §2
The subject of data set [36] is Proteus inconstans 1436-21. The data set is described as above. In kind it is cell-based. To be noted: Providencia alcalifaciens, 143621, 37° C., 18 hours. How it is done:
as §2

Data set [37] has as its system Proteus rettgeri 1434-3. Described as above. In kind it is cell-based. To be noted: Providencia rettgeri, 14343, 37° C., 18 hours. How it is done: as §2
Data set [38] concerns Enterobacter aerogenes 1402-10. The data set is described as above. In kind it is cell-based. The conditions noted are these: Klebsiella aerogenes, 140210, 37° C., 18 hours. On the procedure:
as §2

Data set [39] relates to Salmonella typhimurium 1406. Described as above. In kind it is cell-based. The conditions noted are these: Salmonella enterica, 37° C., 18 hours. How it is done: as §2
Data set [40] relates to Citrobacter freundii 1381-3. The data set is described as above. In kind it is cell-based. The conditions noted are these: 13813, 37° C., 18 hours. On the procedure:
as §2

For data set [41], the system named is Shigella flexneri IaEW8. The data set is described as above. The conditions noted are these: 37° C., 18 hours. In kind it is cell-based. How it is done:
as §2

For data set [42], the system named is Escherichia coli 1341-18(R^+). The description is as above. In kind it is cell-based. To be noted: 37° C., 18 hours. On the procedure:
as §2

Data set [43] relates to Proteus morganii 1433-2. The description is as above. In kind it is cell-based. The conditions noted are these: Morganella morganii, 14332, 37° C., 18 hours. On the procedure:
as §2

Data set [44] relates to Proteus vulgaris IAM 1025. Described as above. In kind it is cell-based. To be noted: IAM1025, 37° C., 18 hours. How it is done: as §2
Data set [45] deals with Enterobacter cloacae 1401-4. Described as above. In kind it is cell-based. The conditions noted are these: 14014, 37° C., 18 hours. On the procedure: as §2
Data set [46] is described as follows: Acute toxicity, rat. To be noted: in vivo, male, observed one week. An excerpt: (§3) Litchfield-Wilcoxon method
Data set [47] is described as follows: Acute toxicity, mouse. Details: species or system Mouse (ICR-strain). The conditions noted are these: in vivo, observed one week.
Description: Male and Female mice of ICR-strain, aged 6 weeks were used.
as §3

Consider `CC(=O)N(O)CCCP(=O)(O)O` [FR-900098, 3-(N-acetyl-N-hydroxyamino)propylphosphonic acid], for which, in data set [1], the antimicrobial activities result is on record as “antimicrobial activities against various pathogenic microorganisms”.
Take `O=CN(O)CCCP(=O)(O)O` [monoammonium salt of 3-(N-formyl-N-hydroxyamino)propylphosphonic acid]: the MIC is 6.25 µg/mL in data set [2]; over 800 µg/mL in data set [3]; 12.5 µg/mL in [4]; 6.25 µg/mL in [5]; 100 µg/mL in data set [6]; 200 µg/mL in data set [7]. The MIC in [8] is 100 µg/mL; in data set [9] it was 0.39 µg/mL; in data set [10], 12.5 µg/mL; in data set [11], 0.39 µg/mL; in data set [12], 0.78 µg/mL; in data set [13] it was at most 0.1 µg/mL. Moreover, the MIC in [14] amounted to 100 µg/mL; in [15], 3.13 µg/mL; in data set [16] it was 1.56 µg/mL; in [17] it was 6.25 µg/mL; in data set [18] it was 25 µg/mL; in [19], 3.13 µg/mL. In addition, the MIC was 12.5 µg/mL in data set [20], over 800 µg/mL in [21], 3.13 µg/mL in data set [22] and 6.25 µg/mL in [23]. For the same molecule, in [24] (orally once at 1 hour), the “ED50, oral administration” value is reported as 0.280 mg/mouse. For the same molecule, in data set [24] (s.c. three times at 0, 1, 3 hours), the “ED50, subcutaneous administration” value is recorded as 0.228 mg/mouse.
`O=CN(O)C/C=C/P(=O)(O)O` [monopotassium salt of 3-(N-formyl-N-hydroxyamino)-trans-1-propenylphosphonic acid]: the MIC is over 100 µg/mL in data set [25]; 6.25 µg/mL in data set [26]; 25 µg/mL in data set [27]; 0.39 µg/mL in data set [28]; 25 µg/mL in data set [29]; over 100 µg/mL in [30]. The MIC is 6.25 µg/mL in [31]; 0.78 µg/mL in data set [32]; 1.56 µg/mL in data set [33]; 0.2 µg/mL in [34]; 100 µg/mL in data set [35]; 25 µg/mL in data set [36]. The MIC in data set [37] was found to be 6.25 µg/mL; in data set [38], 50 µg/mL; in [39] it was 12.5 µg/mL; in data set [40] it was 12.5 µg/mL; in [41], 50 µg/mL; in data set [42], 25 µg/mL. The MIC in data set [43] is over 100 µg/mL; in [44], 1.56 µg/mL; in data set [45], 12.5 µg/mL.
With `O=CN(O)CCCP(=O)(O)O` [monosodium salt of 3-(N-formyl-N-hydroxyamino)propylphosphonic acid], the LD50 at 168 h in [46] (oral, read-out: LD50, oral administration) is over 11000 mg/kg; in data set [46] (sc, subcutaneous, read-out: LD50, subcutaneous administration), 8000 mg/kg; in data set [47] (po, female, oral, read-out: LD50, oral administration) it was over 11000 mg/kg; in data set [47] (po, male, oral, read-out: LD50, oral administration), 11000 mg/kg; in data set [47] (sc, female, subcutaneous, read-out: LD50, subcutaneous administration), 8270 mg/kg; in data set [47] (sc, male, subcutaneous, read-out: LD50, subcutaneous administration), 8050 mg/kg.
